PubChem BioAssay (NCI)
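Each compound was tested at five concentrations against cells in 96-well plates for 48 hours. TGI denotes the concentration required for complete inhibition of growth.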

Key:
Assay in all cases: NCI-60 cell line screen, 48 h
CCRF-CEM leukemia = tested on: CCRF-CEM leukemia
NCI-H23 lung = tested on: NCI-H23 lung
HOP-62 NSCLC = tested on: HOP-62 NSCLC
MDA-MB-435 = tested on: MDA-MB-435
A549 NSCLC = tested on: A549 NSCLC
COLO 205 colon = tested on: COLO 205 colon
CAKI-1 renal = tested on: CAKI-1 renal
HCT-15 colon = tested on: HCT-15 colon
OVCAR-4 ovarian = tested on: OVCAR-4 ovarian
SF-539 CNS = tested on: SF-539 CNS
MALME-3M melanoma = tested on: MALME-3M melanoma
NCI-H460 lung = tested on: NCI-H460 lung
MOLT-4 leukemia = tested on: MOLT-4 leukemia
SR leukemia = tested on: SR leukemia
BT-549 breast = tested on: BT-549 breast
SF-295 CNS = tested on: SF-295 CNS
MDA-N = tested on: MDA-N
MDA-MB-231 breast = tested on: MDA-MB-231 breast
A498 renal = tested on: A498 renal
U251 CNS = tested on: U251 CNS
IGROV1 ovarian = tested on: IGROV1 ovarian
HCC-2998 colon = tested on: HCC-2998 colon
PC-3 prostate = tested on: PC-3 prostate
KM12 colon = tested on: KM12 colon
UACC-257 melanoma = tested on: UACC-257 melanoma
NCI-H226 lung = tested on: NCI-H226 lung
M14 melanoma = tested on: M14 melanoma
SK-OV-3 ovarian = tested on: SK-OV-3 ovarian
SK-MEL-5 melanoma = tested on: SK-MEL-5 melanoma
SNB-19 CNS = tested on: SNB-19 CNS
SF-268 CNS = tested on: SF-268 CNS
HCT-116 colon = tested on: HCT-116 colon
UO-31 renal = tested on: UO-31 renal
RXF 393 renal = tested on: RXF 393 renal
EKVX NSCLC = tested on: EKVX NSCLC
UACC-62 melanoma = tested on: UACC-62 melanoma
NCI/ADR-RES ovarian = tested on: NCI/ADR-RES ovarian
SNB-75 CNS = tested on: SNB-75 CNS
RPMI-8226 leukemia = tested on: RPMI-8226 leukemia
SK-MEL-28 melanoma = tested on: SK-MEL-28 melanoma
SW-620 colon = tested on: SW-620 colon
MCF7 breast = tested on: MCF7 breast
T-47D breast = tested on: T-47D breast
DU-145 prostate = tested on: DU-145 prostate
SN12C renal = tested on: SN12C renal
NCI-H522 lung = tested on: NCI-H522 lung
K-562 leukemia = tested on: K-562 leukemia
ACHN renal = tested on: ACHN renal
LOX IMVI melanoma = tested on: LOX IMVI melanoma
SK-MEL-2 melanoma = tested on: SK-MEL-2 melanoma
OVCAR-5 ovarian = tested on: OVCAR-5 ovarian
TK-10 renal = tested on: TK-10 renal
OVCAR-8 ovarian = tested on: OVCAR-8 ovarian
786-0 renal = tested on: 786-0 renal
HT29 colon = tested on: HT29 colon
HL-60(TB) leukemia = tested on: HL-60(TB) leukemia

Which TGI (CCRF-CEM leukemia) does the source give for `CCCCCCCc1cscc1-c1cscc1Br` here?
Its TGI is 40.3 µM.

And the TGI (NCI-H23 lung)?
Its TGI is > 100 µM.

What about the TGI (HOP-62 NSCLC) of the same molecule?
Its TGI is > 100 µM.

What about the TGI (MDA-MB-435) of the same molecule?
The TGI was > 100 µM.

What about the TGI (A549 NSCLC) of the same molecule?
The TGI was > 100 µM.

What about the TGI (COLO 205 colon) of the same molecule?
The TGI was 35.6 µM.

What about the TGI (CAKI-1 renal) of the same molecule?
Its TGI is 91.2 µM.

What about the TGI (HCT-15 colon) of the same molecule?
Its TGI is > 100 µM.

And the TGI (OVCAR-4 ovarian)?
Its TGI is > 100 µM.

What about the TGI (SF-539 CNS) of the same molecule?
The TGI was > 100 µM.

What about the TGI (MALME-3M melanoma) of the same molecule?
Its TGI is > 100 µM.

What about the TGI (NCI-H460 lung) of the same molecule?
Its TGI is > 100 µM.

And the TGI (MOLT-4 leukemia)?
Its TGI is 42.3 µM.

What about the TGI (SR leukemia) of the same molecule?
The TGI was 41.3 µM.

And the TGI (BT-549 breast)?
Its TGI is > 100 µM.

And the TGI (SF-295 CNS)?
Its TGI is 79.8 µM.

And the TGI (MDA-N)?
The TGI was > 100 µM.

And the TGI (MDA-MB-231 breast)?
Its TGI is > 100 µM.

What about the TGI (A498 renal) of the same molecule?
Its TGI is > 100 µM.

And the TGI (U251 CNS)?
Its TGI is > 100 µM.

What about the TGI (IGROV1 ovarian) of the same molecule?
Its TGI is > 100 µM.

And the TGI (HCC-2998 colon)?
The TGI was 75.6 µM.

And the TGI (PC-3 prostate)?
The TGI was > 100 µM.

And the TGI (KM12 colon)?
The TGI was 80.7 µM.

What about the TGI (UACC-257 melanoma) of the same molecule?
Its TGI is > 100 µM.

What about the TGI (NCI-H226 lung) of the same molecule?
Its TGI is > 100 µM.

What about the TGI (M14 melanoma) of the same molecule?
Its TGI is > 100 µM.

And the TGI (SK-OV-3 ovarian)?
Its TGI is > 100 µM.

What about the TGI (SK-MEL-5 melanoma) of the same molecule?
The TGI was > 100 µM.

What about the TGI (SNB-19 CNS) of the same molecule?
Its TGI is > 100 µM.

What about the TGI (SF-268 CNS) of the same molecule?
Its TGI is > 100 µM.

What about the TGI (HCT-116 colon) of the same molecule?
The TGI was > 100 µM.

And the TGI (UO-31 renal)?
The TGI was > 100 µM.

What about the TGI (RXF 393 renal) of the same molecule?
The TGI was 67 µM.

What about the TGI (EKVX NSCLC) of the same molecule?
Its TGI is > 100 µM.

And the TGI (UACC-62 melanoma)?
Its TGI is > 100 µM.

What about the TGI (NCI/ADR-RES ovarian) of the same molecule?
The TGI was > 100 µM.

What about the TGI (SNB-75 CNS) of the same molecule?
Its TGI is 87 µM.

What about the TGI (RPMI-8226 leukemia) of the same molecule?
The TGI was 47 µM.

What about the TGI (SK-MEL-28 melanoma) of the same molecule?
Its TGI is > 100 µM.

And the TGI (SW-620 colon)?
Its TGI is > 100 µM.

What about the TGI (MCF7 breast) of the same molecule?
The TGI was > 100 µM.

What about the TGI (T-47D breast) of the same molecule?
The TGI was 88.3 µM.

What about the TGI (DU-145 prostate) of the same molecule?
The TGI was > 100 µM.

What about the TGI (SN12C renal) of the same molecule?
The TGI was > 100 µM.

And the TGI (NCI-H522 lung)?
The TGI was 61.9 µM.

What about the TGI (K-562 leukemia) of the same molecule?
The TGI was > 100 µM.

What about the TGI (ACHN renal) of the same molecule?
Its TGI is > 100 µM.

What about the TGI (LOX IMVI melanoma) of the same molecule?
The TGI was 36.4 µM.

What about the TGI (SK-MEL-2 melanoma) of the same molecule?
The TGI was 34.1 µM.

And the TGI (OVCAR-5 ovarian)?
The TGI was 89.4 µM.

And the TGI (TK-10 renal)?
The TGI was > 100 µM.

And the TGI (OVCAR-8 ovarian)?
The TGI was > 100 µM.

And the TGI (786-0 renal)?
The TGI was > 100 µM.

With `CC(C)(Oc1ccc2c(=O)cc(-c3ccccc3)oc2c1)C(=O)N1CCN(c2ccccc2)CC1` as the molecule, how does the TGI (CCRF-CEM leukemia) read?
Its TGI is > 10 µM.

What about the TGI (NCI-H23 lung) of the same molecule?
Its TGI is > 10 µM.

What about the TGI (HOP-62 NSCLC) of the same molecule?
Its TGI is > 10 µM.

And the TGI (A549 NSCLC)?
Its TGI is > 10 µM.

And the TGI (CAKI-1 renal)?
The TGI was > 10 µM.

What about the TGI (HCT-15 colon) of the same molecule?
The TGI was > 10 µM.

What about the TGI (MALME-3M melanoma) of the same molecule?
The TGI was > 10 µM.

And the TGI (MOLT-4 leukemia)?
Its TGI is > 10 µM.

What about the TGI (SR leukemia) of the same molecule?
The TGI was > 10 µM.

What about the TGI (SF-295 CNS) of the same molecule?
Its TGI is > 10 µM.

What about the TGI (MDA-N) of the same molecule?
Its TGI is > 10 µM.

What about the TGI (MDA-MB-231 breast) of the same molecule?
Its TGI is > 10 µM.

What about the TGI (HT29 colon) of the same molecule?
Its TGI is > 10 µM.

And the TGI (IGROV1 ovarian)?
The TGI was > 10 µM.

What about the TGI (HCC-2998 colon) of the same molecule?
The TGI was > 10 µM.

And the TGI (PC-3 prostate)?
Its TGI is > 10 µM.

What about the TGI (KM12 colon) of the same molecule?
The TGI was > 10 µM.

And the TGI (UACC-257 melanoma)?
Its TGI is > 10 µM.

And the TGI (M14 melanoma)?
Its TGI is > 10 µM.

And the TGI (SK-OV-3 ovarian)?
The TGI was > 10 µM.

What about the TGI (SK-MEL-5 melanoma) of the same molecule?
Its TGI is > 10 µM.

And the TGI (SF-268 CNS)?
The TGI was > 10 µM.

And the TGI (RXF 393 renal)?
The TGI was 6.73 µM.

What about the TGI (HL-60(TB) leukemia) of the same molecule?
Its TGI is 4.38 µM.

What about the TGI (EKVX NSCLC) of the same molecule?
Its TGI is > 10 µM.

And the TGI (UACC-62 melanoma)?
The TGI was > 10 µM.

What about the TGI (SNB-75 CNS) of the same molecule?
The TGI was > 10 µM.

And the TGI (RPMI-8226 leukemia)?
The TGI was > 10 µM.

What about the TGI (SK-MEL-28 melanoma) of the same molecule?
The TGI was > 10 µM.

And the TGI (SW-620 colon)?
Its TGI is > 10 µM.

What about the TGI (MCF7 breast) of the same molecule?
The TGI was > 10 µM.

And the TGI (T-47D breast)?
The TGI was > 10 µM.

What about the TGI (DU-145 prostate) of the same molecule?
Its TGI is > 10 µM.

What about the TGI (SN12C renal) of the same molecule?
Its TGI is > 10 µM.

What about the TGI (K-562 leukemia) of the same molecule?
The TGI was > 10 µM.

What about the TGI (LOX IMVI melanoma) of the same molecule?
The TGI was > 10 µM.

What about the TGI (TK-10 renal) of the same molecule?
Its TGI is > 10 µM.

What about the TGI (OVCAR-8 ovarian) of the same molecule?
Its TGI is > 10 µM.

And the TGI (786-0 renal)?
The TGI was > 10 µM.
